Laboratory results reported in US11311520B2, “Substituted dihydroimidazopyridinediones as MKNK1 and MKNK2 inhibitors” (Bayer Pharma Aktiengesellschaft, priority 2017, dated 2022).
Counter-ions that a name gives are not always drawn.

Target: human full-length MKNK1 (Homo sapiens (Human), UniProt Q9BUB5, T344D)
Assay: MKNK1 kinase high ATP assay (TR-FRET)
Type: biochemical
Conditions: 2 mM ATP, 15 min preincubation with enzyme, GST-MKNK1 (T344D)
Summary of the method: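 GST-tagged full-length human MKNK1 (1-424, T344D, baculovirus-expressed) preincubated 15 min at 22 °C with compound, then reacted 30 min at 22 °C with 2 mM ATP and 0.06 μM biotinylated peptide (final) in HEPES pH 7.5. Phospho-substrate by TR-FRET (665/622 nm ratio), normalised to no-inhibitor and no-enzyme controls.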

human full-length MKNK1, sequence (Q9BUB5 other isoform, or with tags, fused parts or gaps T344D): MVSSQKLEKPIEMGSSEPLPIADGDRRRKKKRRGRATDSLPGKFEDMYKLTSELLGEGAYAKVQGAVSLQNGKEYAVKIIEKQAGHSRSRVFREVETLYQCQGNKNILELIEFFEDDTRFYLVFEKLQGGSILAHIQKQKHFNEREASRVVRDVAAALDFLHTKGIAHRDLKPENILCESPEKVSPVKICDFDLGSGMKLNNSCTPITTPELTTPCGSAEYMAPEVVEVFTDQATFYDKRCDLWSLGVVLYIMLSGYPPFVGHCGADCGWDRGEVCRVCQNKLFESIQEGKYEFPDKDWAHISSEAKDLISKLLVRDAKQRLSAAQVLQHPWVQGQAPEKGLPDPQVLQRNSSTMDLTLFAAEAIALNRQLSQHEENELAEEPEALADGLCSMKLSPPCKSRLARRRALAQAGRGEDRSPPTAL

Q: With Cc1cc(Nc2ncnc3c2CN(S(=O)(=O)c2ccccc2)C3)c(=O)n2c1C(=O)NC21CCCCC1 [Example 70, 8′-methyl-6′-{[6-(phenylsulfonyl)-6,7-dihydro-5H-pyrrolo[3,4-d]pyrimidin-4-yl]amino}-2′H-spiro[cyclohexane-1,3′-imidazo[1,5-a]pyridine]-1′,5′-dione] as the molecule, how does the IC50 read?
A: 21.7 nM

Q: With Cc1cc(Nc2ncnc3c2CN(S(=O)(=O)C(F)F)C3)c(=O)n2c1C(=O)NC21CCCCC1 [Example 71, 6′-({6-[(difluoromethyl)sulfonyl]-6,7-dihydro-5H-pyrrolo[3,4-d]pyrimidin-4-yl}amino)-8′-methyl-2′H-spiro[cyclohexane-1,3′-imidazo[1,5-a]pyridine]-1′,5′-dione] as the molecule, how does the IC50 read?
A: 59.2 nM

Q: For Cc1cc(Nc2ncnc3c2CN(S(=O)(=O)C(F)(F)F)C3)c(=O)n2c1C(=O)NC21CCCCC1 [Example 72, 8′-methyl-6′-({6-[(trifluoromethyl)sulfonyl]-6,7-dihydro-5H-pyrrolo[3,4-d]pyrimidin-4-yl}amino)-2′H-spiro[cyclohexane-1,3′-imidazo[1,5-a]pyridine]-1′,5′-dione], which IC50 is on record?
A: 30.4 nM

Q: With Cc1cc(Nc2ncnc3c2CN(S(=O)(=O)CC(F)(F)F)C3)c(=O)n2c1C(=O)NC21CCCCC1 [Example 73, 8′-methyl-6′-({6-[(2,2,2-trifluoroethyl)sulfonyl]-6,7-dihydro-5H-pyrrolo[3,4-d]pyrimidin-4-yl}amino)-2′H-spiro[cyclohexane-1,3′-imidazo[1,5-a]pyridine]-1′,5′-dione] as the molecule, how does the IC50 read?
A: 168 nM

Q: With Cc1cc(Nc2ncnc3sc(C(=O)N4CC(N)C4)cc23)c(=O)n2c1C(=O)NC21CCCC1 [Example 74, 6′-({6-[(3-Aminoazetidin-1-yl)carbonyl]thieno[2,3-d]pyrimidin-4-yl}amino)-8′-methyl-2′H-spiro[cyclopentane-1,3′-imidazo[1,5-a]pyridine]-1′,5′-dione] as the molecule, how does the IC50 read?
A: 1.5 nM

Q: How did the IC50 turn out when CCNC(=O)N1Cc2ncnc(Nc3cc(C)c4n(c3=O)C3(CCCCC3)NC4=O)c2C1 [Example 75, N-Ethyl-4-[(8′-methyl-1′,5′-dioxo-1′,5′-dihydro-2′H-spiro[cyclohexane-1,3′-imidazo[1,5-a]pyridin]-6′-yl)amino]-5,7-dihydro-6H-pyrrolo[3,4-d]pyrimidine-6-carboxamide] was run?
A: 11.9 nM

Q: CCOC(=O)N1Cc2ncnc(Nc3cc(C)c4n(c3=O)C3(CCCCC3)NC4=O)c2C1 [Example 76, Ethyl 4-[(8′-methyl-1′,5′-dioxo-1′,5′-dihydro-2′H-spiro[cyclohexane-1,3′-imidazo[1,5-a]pyridin]-6′-yl)amino]-5,7-dihydro-6H-pyrrolo[3,4-d]pyrimidine-6-carboxylate] was tested. Which IC50 did it give?
A: 17.7 nM

Q: Which IC50 does the source give for Cc1cc(Nc2ncnc3c2CN(C(=O)[C@@H]2CCC(=O)N2)C3)c(=O)n2c1C(=O)NC21CCCCC1 [Example 77, 8′-Methyl-6′-[(6-{[(2S)-5-oxopyrrolidin-2-yl]carbonyl}-6,7-dihydro-5H-pyrrolo[3,4-cl]pyrimidin-4-yl)amino]-2′H-spiro[cyclohexane-1,3′-imidazo[1,5-a]pyridine]-1′,5′-dione] here?
A: 55.9 nM

Q: How did the IC50 turn out when CC(=O)N1Cc2ncnc(Nc3cc(C)c4n(c3=O)C3(CCCCC3)NC4=O)c2C1 [Example 78, 6′-[(6-Acetyl-6,7-dihydro-5H-pyrrolo[3,4-d]pyrimidin-4-yl)amino]-8′-methyl-2′H-spiro[cyclohexane-1,3′-imidazo[1,5-a]pyridine]-1′,5′-dione] was run?
A: 37.9 nM

Q: For Cc1cc(Nc2ncnc3c2CN(S(=O)(=O)c2ccccn2)C3)c(=O)n2c1C(=O)NC21CCCCC1 [Example 79, 8′-Methyl-6′-{[6-(pyridin-2-ylsulfonyl)-6,7-dihydro-5H-pyrrolo[3,4-d]pyrimidin-4-yl]amino}-2′H-spiro[cyclohexane-1,3′-imidazo[1,5-a]pyridine]-1′,5′-dione], which IC50 is on record?
A: 122 nM

Q: Which IC50 does the source give for Cc1cc(Nc2ncnc3sc(C(=O)O)cc23)c(=O)n2c1C(=O)NC21CCC(F)(F)CC1 [Example 80, 4-[(4,4-Difluoro-8′-methyl-1′,5′-dioxo-1′,5′-dihydro-2′H-spiro[cyclohexane-1,3′-imidazo[1,5-a]pyridin]-6′-yl)amino]thieno[2,3-d]pyrimidine-6-carboxylic acid] here?
A: 126 nM

Q: For Cc1cc(Nc2ncnc3sc(C(=O)NCCN(C)C)cc23)c(=O)n2c1C(=O)NC21CCC(F)(F)CC1 [Example 81, 4-[(4,4-Difluoro-8′-methyl-1′,5′-dioxo-1′,5′-dihydro-2′H-spiro[cyclohexane-1,3′-imidazo[1,5-a]pyridin]-6′-yl)amino]-N-[2-(dimethylamino)ethyl]thieno[2,3-d]pyrimidine-6-carboxamide], which IC50 is on record?
A: 5 nM

Q: How did the IC50 turn out when Cc1cc(Nc2ncnc3sc(C(=O)N(C)CCN(C)C)cc23)c(=O)n2c1C(=O)NC21CCC(F)(F)CC1 [Example 82, 4-[(4,4-Difluoro-8′-methyl-1′,5′-dioxo-1′,5′-dihydro-2′H-spiro[cyclohexane-1,3′-imidazo[1,5-a]pyridin]-6′-yl)amino]-N-[2-(dimethylamino)ethyl]-N-methylthieno[2,3-d]pyrimidine-6-carboxamide] was run?
A: 18.3 nM

Q: With Cc1cc(Nc2ncnc3sc(C(=O)N4CC(NC(=O)OC(C)(C)C)C4)cc23)c(=O)n2c1C(=O)NC21CCC(F)(F)CC1 [Example 83, tert-Butyl [1-({4-[(4,4-difluoro-8′-methyl-1′,5′-dioxo-1′,5′-dihydro-2′H-spiro[cyclohexane-1,3′-imidazo[1,5-a]pyridin]-6′-yl)amino]thieno[2,3-d]pyrimidin-6-yl}carbonyl)azetidin-3-yl]carbamate] as the molecule, how does the IC50 read?
A: 12.2 nM

Q: Which IC50 does the source give for Cc1cc(Nc2ncnc3sc(C(=O)N4CC(N)C4)cc23)c(=O)n2c1C(=O)NC21CCC(F)(F)CC1 [Example 84, 6′-({6-[(3-Aminoazetidin-1-yl)carbonyl]thieno[2,3-d]pyrimidin-4-yl}amino)-4,4-difluoro-8′-methyl-2′H-spiro[cyclohexane-1,3′-imidazo[1,5-a]pyridine]-1′,5′-dione] here?
A: 10.8 nM

Q: Which IC50 does the source give for Cc1cc(Nc2ncnc3sc(C(=O)N4CC(C#N)C4)cc23)c(=O)n2c1C(=O)NC21CCC(F)(F)CC1 [Example 85, 1-({4-[(4,4-Difluoro-8′-methyl-1′,5′-dioxo-1′,5′-dihydro-2′H-spiro[cyclohexane-1,3′-imidazo[1,5-a]pyridin]-6′-yl)amino]thieno[2,3-d]pyrimidin-6-yl}carbonyl)azetidine-3-carbonitrile] here?
A: 25.2 nM

Q: With Cc1cc(Nc2ncnc3sc(C(=O)N4CC[C@@H](N(C)C)C4)cc23)c(=O)n2c1C(=O)NC21CCC(F)(F)CC1 [Example 86, 6′-[(6-{[(3R)-3-(Dimethylamino)pyrrolidin-1-yl]carbonyl}thieno[2,3-d]pyrimidin-4-yl)amino]-4,4-difluoro-8′-methyl-2′H-spiro[cyclohexane-1,3′-imidazo[1,5-a]pyridine]-1′,5′-dione] as the molecule, how does the IC50 read?
A: 11.9 nM

Q: For Cc1cc(Nc2ncnc3sc(C(=O)N4CCC(N(C)C)CC4)cc23)c(=O)n2c1C(=O)NC21CCC(F)(F)CC1 [Example 87, 6′-[(6-{[4-(Dimethylamino)piperidin-1-yl]carbonyl}thieno[2,3-d]pyrimidin-4-yl)amino]-4,4-difluoro-8′-methyl-2′H-spiro[cyclohexane-1,3′-imidazo[1,5-a]pyridine]-1′,5′-dione], which IC50 is on record?
A: 23.1 nM

Q: Cc1cc(Nc2ncnc3sc(C(=O)N4C[C@H]5C[C@@H]4CO5)cc23)c(=O)n2c1C(=O)NC21CCC(F)(F)CC1 [Example 88, 4,4-Difluoro-8′-methyl-6′-({6-[(1R,4R)-2-oxa-5-azabicyclo[2.2.1]hept-5-ylcarbonyl]thieno[2,3-d]pyrimidin-4-yl}amino)-2′H-spiro[cyclohexane-1,3′-imidazo[1,5-a]pyridine]-1′,5′-dione] was tested. Which IC50 did it give?
A: 13.5 nM

Q: Which IC50 does the source give for Cc1cc(Nc2ncnc3sccc23)c(=O)n2c1C(=O)NC21CCC(F)(F)CC1 [Example 89, 4,4-Difluoro-8′-methyl-6′-(thieno[2,3-d]pyrimidin-4-ylamino)-2′H-spiro[cyclohexane-1,3′-imidazo[1,5-a]pyridine]-1′,5′-dione] here?
A: 12.8 nM

Q: With Cc1cc(Nc2ncnc3[nH]ccc23)c(=O)n2c1C(=O)NC21CCC(F)(F)CC1 [Example 90, 4,4-Difluoro-8′-methyl-6′-(7H-pyrrolo[2,3-d]pyrimidin-4-ylamino)-2′H-spiro[cyclohexane-1,3′-imidazo[1,5-a]pyridine]-1′,5′-dione] as the molecule, how does the IC50 read?
A: 0.7 nM

Q: How did the IC50 turn out when Cc1cc(Nc2ncnc3sc(C(=O)O)c(C)c23)c(=O)n2c1C(=O)NC21CCC(F)(F)CC1 [Example 93, 4-[(4,4-Difluoro-8′-methyl-1′,5′-dioxo-1′,5′-dihydro-2′H-spiro[cyclohexane-1,3′-imidazo[1,5-a]pyridin]-6′-yl)amino]-5-methylthieno[2,3-d]pyrimidine-6-carboxylic acid] was run?
A: 42 nM

Q: With Cc1cc(Nc2ncnc(N)n2)c(=O)n2c1C(=O)NC21CCC(F)(F)CC1 [Example 94, 6′-[(4-Amino-1,3,5-triazin-2-yl)amino]-4,4-difluoro-8′-methyl-2′H-spiro[cyclohexane-1,3′-imidazo[1,5-a]pyridine]-1′,5′-dione] as the molecule, how does the IC50 read?
A: 27.8 nM

Same assay, conditions: 2 mM ATP, 15 min preincubation with enzyme, GST-MKNK1 (T344D), hydrochloride

Q: For Cc1cc(Nc2ncnc3[nH]ccc23)c(=O)n2c1C(=O)NC21CCC(F)(F)CC1 [Example 92, 4,4-Difluoro-8′-methyl-6′-(7H-pyrrolo[2,3-d]pyrimidin-4-ylamino)-2′H-spiro[cyclohexane-1,3′-imidazo[1,5-a]pyridine]-1′,5′-dione hydrochloride], which IC50 is on record?
A: 1.2 nM

Same assay, conditions: 2 mM ATP, 15 min preincubation with enzyme, GST-MKNK1 (T344D), methanesulfonate

Q: For Cc1cc(Nc2ncnc3[nH]ccc23)c(=O)n2c1C(=O)NC21CCC(F)(F)CC1 [Example 91, 4,4-Difluoro-8′-methyl-6′-(7H-pyrrolo[2,3-d]pyrimidin-4-ylamino)-2′H-spiro[cyclohexane-1,3′-imidazo[1,5-a]pyridine]-1′,5′-dione methanesulfonate], which IC50 is on record?
A: 1.1 nM
